Results published in ChEMBL document CHEMBL1139897, “Design of potent PPARalpha agonists” (Bioorg Med Chem Lett, 2007).
pEC50: −log10 of the molar value.

Columns and labels:
[1] = target: T1, Peroxisome proliferator-activated receptor alpha (Homo sapiens, UniProt Q07869); assay: Agonist activity at human PPARalpha by transactivation assay; type: functional
T1 sequence (Q07869 whole entry): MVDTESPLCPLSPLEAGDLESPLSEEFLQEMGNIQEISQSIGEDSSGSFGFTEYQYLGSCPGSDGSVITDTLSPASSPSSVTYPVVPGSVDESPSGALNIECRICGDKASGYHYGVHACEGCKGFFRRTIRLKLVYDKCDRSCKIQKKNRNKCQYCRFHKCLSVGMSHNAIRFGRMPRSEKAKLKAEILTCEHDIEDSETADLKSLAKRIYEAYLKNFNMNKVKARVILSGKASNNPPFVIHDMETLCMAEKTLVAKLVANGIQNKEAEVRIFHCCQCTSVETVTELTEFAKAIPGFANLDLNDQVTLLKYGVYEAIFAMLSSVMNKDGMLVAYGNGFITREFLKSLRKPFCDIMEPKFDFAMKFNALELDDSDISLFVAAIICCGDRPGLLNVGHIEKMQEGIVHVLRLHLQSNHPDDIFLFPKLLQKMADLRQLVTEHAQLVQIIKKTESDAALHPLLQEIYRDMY

[2] = target: T2, Peroxisome proliferator-activated receptor alpha (Homo sapiens) (UniProt Q07869); assay: Agonist activity at human PPARalpha by transactivation assay relative to WY-14643; type: functional
T2 sequence (whole entry): T1 sequence (Q07869 whole entry)

[3] = target: T3, Peroxisome proliferator-activated receptor gamma (Homo sapiens, UniProt P37231)
T3 sequence (P37231 whole entry): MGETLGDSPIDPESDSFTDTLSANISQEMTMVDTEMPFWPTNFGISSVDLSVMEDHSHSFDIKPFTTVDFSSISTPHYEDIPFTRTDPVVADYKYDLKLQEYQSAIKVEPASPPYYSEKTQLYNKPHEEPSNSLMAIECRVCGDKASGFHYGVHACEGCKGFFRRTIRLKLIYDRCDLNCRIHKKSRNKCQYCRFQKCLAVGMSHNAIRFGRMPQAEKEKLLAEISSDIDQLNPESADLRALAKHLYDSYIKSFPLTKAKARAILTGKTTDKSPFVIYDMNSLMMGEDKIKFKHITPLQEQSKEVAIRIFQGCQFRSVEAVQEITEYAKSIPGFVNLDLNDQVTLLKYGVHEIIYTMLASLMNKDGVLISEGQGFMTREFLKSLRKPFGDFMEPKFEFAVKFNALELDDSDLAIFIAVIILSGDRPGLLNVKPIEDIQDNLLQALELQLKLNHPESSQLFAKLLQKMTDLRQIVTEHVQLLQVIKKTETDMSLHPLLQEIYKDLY
Description: Agonist activity at human PPARgamma by transactivation assay

[4] = target: T4, Peroxisome proliferator-activated receptor delta (Homo sapiens, UniProt Q03181); assay: Agonist activity at human PPARdelta by transactivation assay; type: functional
T4 sequence (Q03181 whole entry): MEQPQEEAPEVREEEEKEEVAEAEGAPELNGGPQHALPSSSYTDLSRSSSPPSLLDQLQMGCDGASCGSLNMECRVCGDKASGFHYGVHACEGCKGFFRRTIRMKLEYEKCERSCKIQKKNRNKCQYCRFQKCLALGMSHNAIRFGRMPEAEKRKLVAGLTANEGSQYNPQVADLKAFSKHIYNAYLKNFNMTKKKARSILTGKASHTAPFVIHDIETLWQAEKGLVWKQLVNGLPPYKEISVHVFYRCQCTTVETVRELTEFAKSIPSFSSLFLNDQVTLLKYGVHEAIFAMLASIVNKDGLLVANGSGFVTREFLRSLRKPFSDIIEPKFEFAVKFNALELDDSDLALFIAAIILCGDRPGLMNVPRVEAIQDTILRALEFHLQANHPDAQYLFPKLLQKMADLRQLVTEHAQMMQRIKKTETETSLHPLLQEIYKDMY

[5] = Cmax in rat at 2.5 mg/kg, po; type: ADME, organism-based; set-up: dose 2.5 mg/kg, route oral; settings: in vivo
[6] = Half life in rat at 2.5 mg/kg, po; type: ADME, organism-based; set-up: dose 2.5 mg/kg, route oral; settings: in vivo
[7] = Oral bioavailability in rat at 2.5 mg/kg; type: ADME, organism-based; settings: in vivo

| pEC50 [1] | Activity [2] | pEC50 [3] | pEC50 [4] | Structure (SMILES) | Cmax [5] | half-life [6] | bioavailability [7] |
| --- | --- | --- | --- | --- | --- | --- | --- |
| 6.30 | 108% | 5.51 |  | CCO[C@@H](Cc1ccc(OC/C=C/c2cc(C#Cc3ccccc3)cc(C#Cc3ccccc3)c2)cc1)C(=O)O |  |  |  |
| 4.85 | 110% | 6.00 |  | CCO[C@@H](Cc1ccc(OC/C=C/c2cc(-c3ccc(C(C)(C)C)cc3)cc(-c3ccc(C(C)(C)C)cc3)c2)cc1)C(=O)O |  |  |  |
| 8.70 | 149% | 6.10 | 5.40 | CCO[C@@H](Cc1ccc(OC/C=C/c2cc(OCC(F)(F)F)cc(OCC(F)(F)F)c2)cc1)C(=O)O |  |  |  |
| 7.70 | 197% | 6.70 | 5.10 | CCOc1cc(/C=C/COc2ccc(C[C@H](OCC)C(=O)O)cc2)cc(OCC)c1 | 6160 ng/mL | 2.17 h | 86% |
| 6.30 | 158% |  |  | CCO[C@@H](Cc1ccc(OC/C=C(\C)c2ccc(-c3ccccc3)cc2)cc1)C(=O)O |  |  |  |
| 7.52 | 118% | 5.29 |  | CCO[C@@H](Cc1ccc(OC/C=C/c2cc(CCc3ccccc3)cc(CCc3ccccc3)c2)cc1)C(=O)O |  |  |  |

More lines, now with the values behind:

| Structure (SMILES) | pEC50 [1] | Activity [2] | pEC50 [3] | pEC50 [4] | Cmax [5] | half-life [6] | bioavailability [7] |
| --- | --- | --- | --- | --- | --- | --- | --- |
| CCO[C@@H](Cc1ccc(OC/C=C/c2cc(/C=C/c3ccccc3)cc(/C=C/c3ccccc3)c2)cc1)C(=O)O | 7.05 | 66% | 5.52 |  |  |  |  |
| CCO[C@@H](Cc1ccc(OC/C=C/c2cc(OC(C)C)cc(OC(C)C)c2)cc1)C(=O)O | 8.40 | 207% | 7.10 | 5.22 | 1840 ng/mL | 2.42 h | 95% |
| CCO[C@@H](Cc1ccc(OC/C=C/c2cc(C(F)(F)F)cc(C(F)(F)F)c2)cc1)C(=O)O | 7.70 | 195% | 6.40 | 5.85 |  |  |  |
| CCO[C@@H](Cc1ccc(OC/C=C/c2cc(Br)cc(Br)c2)cc1)C(=O)O | 6.52 | 121% | 5.39 | 4.70 |  |  |  |
| CCO[C@@H](Cc1ccc(OC/C=C/c2cc(OC3CCCC3)cc(OC3CCCC3)c2)cc1)C(=O)O | 7.70 | 135% | 6.52 | 4.82 |  |  |  |
| CCO[C@@H](Cc1ccc(OC/C=C/c2cc(OC)cc(OC)c2)cc1)C(=O)O |  | 186% |  | 4.89 |  |  |  |
| CCO[C@@H](Cc1ccc(OC/C=C/c2cc(-c3ccccc3)cc(-c3ccccc3)c2)cc1)C(=O)O | 7.70 | 30% | 6.70 | 5.40 |  |  |  |
| CCO[C@@H](Cc1ccc(OC/C=C/c2ccccc2)cc1)C(=O)O | 5.80 | 169% | 5.10 | 4.74 |  |  |  |
| CCO[C@@H](Cc1ccc(OC/C=C/c2cc(OC(=O)c3ccccc3)cc(OC(=O)c3ccccc3)c2)cc1)C(=O)O | 7.30 | 121% | 6.72 |  |  |  |  |
